Data reported in US20030125388A1, “5-Aminolevulinic acid formulation dissolved/dispersed in non-aqueous solvents” (priority 2000, published 2003).

Tests used:
[1] = UV-VIS measurement of 5-ALA solution after dilution with water; assay type: physicochemical; conditions: 10% water-free solution, water added 1:1, subsequently diluted 1:100 with water
Excerpt: This was detected by measuring the decrease of absorbance at 447 nm (FIG. 2).

[2] = Decomposition check of non-aqueous 5-ALA solutions by capillary electrophoresis; assay type: physicochemical; conditions: 10% solutions (weight/vol) in 1,2-propylene glycol and glycerol, after complete dissolution
Protocol: 10% solutions (weight/vol) of […] in 1,2-propylene glycol and glycerol were prepared.

- by-products in UV spectrum [1]: without the presence of by-products
Structure (SMILES): NCC(=O)CCC(=O)O [5-ALA, 5-aminolevulinic acid]
- degradation products (DHPY, PY, porphobilinogen) in capillary electrophoresis [2]: neither DHPY, PY nor porphobilinogen were detected
